Results published in patent publication US20260285850A1, “SUBSTITUTED OXAZOLIDINONES AND IMIDAZOLINONES AS HERBICIDES” (FMC CORPORATION, priority 2023, published 2026).

How the values were obtained:
Assay type in all cases: in vivo
[1] = test system: barnyardgrass (Echinochloa crusgalli); assay: Test B flooded paddy test, visual plant response rating 0-100; settings: 250 g ai/ha, Flood, applied to paddy water, evaluated after 13 days
Summary of the method: (§1)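 Plants were grown to the 2-leaf stage, then pots were flooded to 3 cm above the soil and test compounds were applied directly into the paddy water. Water depth was held there throughout; after 13 days in a greenhouse, injury was scored visually against untreated controls.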

[2] = test system: ducksalad (Heteranthera limosa); assay: as above; settings: 250 g ai/ha, Flood, applied to paddy water, evaluated after 13 days
Summary of the method: as §1

rice (Oryza sativa) = assay: as above; settings: 250 g ai/ha, Flood, applied to paddy water, evaluated after 13 days
Summary of the method: as §1

[3] = test system: sedge, umbrella (small-flower umbrella sedge, Cyperus difformis); assay: as above; settings: 250 g ai/ha, Flood, applied to paddy water, evaluated after 13 days
Summary of the method: as §1

soybean (Glycine max) [4] = assay: Test A postemergence application, visual injury rating 0-100; settings: Postemergence, 10 days, 0 is no effect, 100 is complete control
Summary of the method: (§2)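 Compounds formulated in a non-phytotoxic solvent with surfactant are sprayed onto soil of freshly planted loam-sand pots ahead of emergence, or onto emerged plants 2-10 cm tall. After a 10-day greenhouse period, each species is scored visually for injury against untreated controls.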

[5] = test system: galium (catchweed bedstraw, Galium aparine); assay: as above; settings: Postemergence, 10 days, 0 is no effect, 100 is complete control
Summary of the method: as §2

kochia (Bassia scoparia) [6] = assay: as above; settings: Postemergence, 10 days, 0 is no effect, 100 is complete control
Summary of the method: as §2

[7] = test system: oat, wild (wild oat, Avena fatua); assay: as above; settings: Postemergence, 10 days, 0 is no effect, 100 is complete control
Summary of the method: as §2

[8] = test system: horseweed (Erigeron canadensis); assay: as above; settings: Postemergence, 10 days, 0 is no effect, 100 is complete control
Summary of the method: as §2

[9] = test system: ryegrass, Italian (italian ryegrass, Lolium multiflorum); assay: as above; settings: Postemergence, 10 days, 0 is no effect, 100 is complete control
Summary of the method: as §2

[10] = test system: green foxtail (Setaria viridis); assay: as above; settings: Postemergence, 10 days, 0 is no effect, 100 is complete control
Summary of the method: as §2

[11] = test system: wheat (Triticum aestivum); assay: as above; settings: Postemergence, 10 days, 0 is no effect, 100 is complete control
Summary of the method: as §2

[12] = test system: palmer (palmer amaranth, palmer pigweed, Amaranthus palmeri); assay: as above; settings: Postemergence, 10 days, 0 is no effect, 100 is complete control
Summary of the method: as §2

[13] = test system: ragweed (common ragweed, Ambrosia artemisiifolia); assay: as above; settings: Postemergence, 10 days, 0 is no effect, 100 is complete control
Summary of the method: as §2

[14] = test system: barnyardgrass (Echinochloa crus-galli); assay: as above; settings: Postemergence, 10 days, 0 is no effect, 100 is complete control
Summary of the method: as §2

[15] = test system: blackgrass (Alopecurus myosuroides); assay: as above; settings: Postemergence, 10 days, 0 is no effect, 100 is complete control
Summary of the method: as §2

corn (Zea mays) [16] = assay: as above; settings: Postemergence, 10 days, 0 is no effect, 100 is complete control
Summary of the method: as §2

soybean (Glycine max) [17] = assay: Test A preemergence soil spray, visual injury rating 0-100; settings: 10 days, 0 = no effect, 100 = complete control
Summary of the method: as §2

kochia (Bassia scoparia) [18] = assay: as above; settings: 10 days, 0 = no effect, 100 = complete control
Summary of the method: as §2

[19] = test system: oat, wild (wild oat, Avena fatua); assay: as above; settings: 10 days, 0 = no effect, 100 = complete control
Summary of the method: as §2

[20] = test system: ryegrass, Italian (italian ryegrass, Lolium multiflorum); assay: as above; settings: 10 days, 0 = no effect, 100 = complete control
Summary of the method: as §2

[21] = test system: green foxtail (Setaria viridis); assay: as above; settings: 10 days, 0 = no effect, 100 = complete control
Summary of the method: as §2

[22] = test system: wheat (Triticum aestivum); assay: as above; settings: 10 days, 0 = no effect, 100 = complete control
Summary of the method: as §2

[23] = test system: palmer (palmer amaranth, palmer pigweed, Amaranthus palmeri); assay: as above; settings: 10 days, 0 = no effect, 100 = complete control
Summary of the method: as §2

[24] = test system: barnyardgrass (Echinochloa crus-galli); assay: as above; settings: 10 days, 0 = no effect, 100 = complete control
Summary of the method: as §2

[25] = test system: blackgrass (Alopecurus myosuroides); assay: as above; settings: 10 days, 0 = no effect, 100 = complete control
Summary of the method: as §2

corn (Zea mays) [26] = assay: as above; settings: 10 days, 0 = no effect, 100 = complete control
Summary of the method: as §2

Q: `CCCOC(=O)C1C=CC(NC(=O)C2(C)CN(c3cc(F)cc(F)c3)C(=O)O2)C1` (centres unmarked) [Compound 34] was tested. Which “Plant response rating, Barnyardgrass (0 to 100 scale, 0 is no effect and 100 is complete control)” value [1] did it give?
A: 90

Q: What about the “Plant response rating, Ducksalad (0 to 100 scale, 0 is no effect and 100 is complete control)” value [2] of the same molecule?
A: 75

Q: And the “Plant response rating, Rice (0 to 100 scale, 0 is no effect and 100 is complete control)” value (rice (Oryza sativa))?
A: 10

Q: What about the “Plant response rating, Sedge, Umbrella (0 to 100 scale, 0 is no effect and 100 is complete control)” value [3] of the same molecule?
A: 75

Q: What about the “Soybean plant response rating (0 to 100 scale)” value (“Soybean plant response rating” for short) (soybean (Glycine max) [4]; 125 g ai/ha) of the same molecule?
A: 70

Q: And the “Soybean plant response rating” value (soybean (Glycine max) [4]; 500 g ai/ha)?
A: 80

Q: And the “Galium plant response rating (0 to 100 scale)” value ([5]; 125 g ai/ha)?
A: 80

Q: And the “Galium plant response rating (0 to 100 scale)” value ([5]; 500 g ai/ha)?
A: 80

Q: And the “Kochia plant response rating (0 to 100 scale)” value (from here on “Kochia plant response rating”) (kochia (Bassia scoparia) [6]; 125 g ai/ha)?
A: 70

Q: And the “Kochia plant response rating” value (kochia (Bassia scoparia) [6]; 500 g ai/ha)?
A: 70

Q: What about the “Oat, Wild plant response rating (0 to 100 scale)” value (“Oat, Wild plant response rating” for short) ([7]; 125 g ai/ha) of the same molecule?
A: 100

Q: And the “Oat, Wild plant response rating” value ([7]; 500 g ai/ha)?
A: 100

Q: What about the “Horseweed plant response rating (0 to 100 scale)” value ([8]; 125 g ai/ha) of the same molecule?
A: 90

Q: And the “Horseweed plant response rating (0 to 100 scale)” value ([8]; 500 g ai/ha)?
A: 90

Q: What about the “Ryegrass, Italian plant response rating (0 to 100 scale)” value (“Ryegrass, Italian plant response rating” below) ([9]; 125 g ai/ha) of the same molecule?
A: 80

Q: And the “Ryegrass, Italian plant response rating” value ([9]; 500 g ai/ha)?
A: 90

Q: And the “Foxtail, Green plant response rating (0 to 100 scale)” value (shortened to “Foxtail, Green plant response rating”) ([10]; 125 g ai/ha)?
A: 90

Q: What about the “Foxtail, Green plant response rating” value ([10]; 500 g ai/ha) of the same molecule?
A: 90

Q: And the “Wheat plant response rating (0 to 100 scale)” value (from here on “Wheat plant response rating”) ([11]; 125 g ai/ha)?
A: 70

Q: What about the “Wheat plant response rating” value ([11]; 500 g ai/ha) of the same molecule?
A: 80

Q: And the “Amaranth, Palmer / Pigweed, Palmer plant response rating (0 to 100 scale)” value ([12]; 125 g ai/ha)?
A: 80

Q: And the “Amaranth, Palmer / Pigweed, Palmer plant response rating (0 to 100 scale)” value ([12]; 500 g ai/ha)?
A: 100

Q: What about the “Ragweed plant response rating (0 to 100 scale)” value ([13]; 125 g ai/ha) of the same molecule?
A: 70

Q: And the “Ragweed plant response rating (0 to 100 scale)” value ([13]; 500 g ai/ha)?
A: 80

Q: What about the “Barnyardgrass plant response rating (0 to 100 scale)” value (“Barnyardgrass plant response rating” below) ([14]; 125 g ai/ha) of the same molecule?
A: 100

Q: What about the “Barnyardgrass plant response rating” value ([14]; 500 g ai/ha) of the same molecule?
A: 100

Q: What about the “Blackgrass plant response rating (0 to 100 scale)” value (shortened to “Blackgrass plant response rating”) ([15]; 125 g ai/ha) of the same molecule?
A: 90

Q: And the “Blackgrass plant response rating” value ([15]; 500 g ai/ha)?
A: 100

Q: What about the “Corn plant response rating (0 to 100 scale)” value (from here on “Corn plant response rating”) (corn (Zea mays) [16]; 125 g ai/ha) of the same molecule?
A: 100

Q: What about the “Corn plant response rating” value (corn (Zea mays) [16]; 500 g ai/ha) of the same molecule?
A: 100

Q: What about the “Soybean plant response rating” value (soybean (Glycine max) [17]; 125 g ai/ha) of the same molecule?
A: 70

Q: What about the “Soybean plant response rating” value (soybean (Glycine max) [17]; 500 g ai/ha) of the same molecule?
A: 80

Q: And the “Kochia plant response rating” value (kochia (Bassia scoparia) [18]; 125 g ai/ha)?
A: 90

Q: What about the “Kochia plant response rating” value (kochia (Bassia scoparia) [18]; 500 g ai/ha) of the same molecule?
A: 90

Q: What about the “Oat, Wild plant response rating” value ([19]; 125 g ai/ha) of the same molecule?
A: 90

Q: What about the “Oat, Wild plant response rating” value ([19]; 500 g ai/ha) of the same molecule?
A: 90

Q: And the “Ryegrass, Italian plant response rating” value ([20]; 125 g ai/ha)?
A: 100

Q: And the “Ryegrass, Italian plant response rating” value ([20]; 500 g ai/ha)?
A: 100

Q: What about the “Foxtail, Green plant response rating” value ([21]; 125 g ai/ha) of the same molecule?
A: 100

Q: And the “Foxtail, Green plant response rating” value ([21]; 500 g ai/ha)?
A: 100

Q: And the “Wheat plant response rating” value ([22]; 125 g ai/ha)?
A: 90

Q: And the “Wheat plant response rating” value ([22]; 500 g ai/ha)?
A: 100

Q: What about the “Amaranth, Palmer plant response rating (0 to 100 scale)” value ([23]; 125 g ai/ha) of the same molecule?
A: 90

Q: And the “Amaranth, Palmer plant response rating (0 to 100 scale)” value ([23]; 500 g ai/ha)?
A: 100

Q: And the “Barnyardgrass plant response rating” value ([24]; 125 g ai/ha)?
A: 100

Q: What about the “Barnyardgrass plant response rating” value ([24]; 500 g ai/ha) of the same molecule?
A: 100

Q: And the “Blackgrass plant response rating” value ([25]; 125 g ai/ha)?
A: 90

Q: And the “Blackgrass plant response rating” value ([25]; 500 g ai/ha)?
A: 100

Q: And the “Corn plant response rating” value (corn (Zea mays) [26]; 125 g ai/ha)?
A: 90

Q: What about the “Corn plant response rating” value (corn (Zea mays) [26]; 500 g ai/ha) of the same molecule?
A: 100
